Test results from patent US20060194268A1, “Method for measuring spinorphin” (priority 2005, published 2006).
No end group written: not given here.

Assays:
[1] = tested on: spinorphin rabbit antibody; assay: Competitive enzyme immunoassay, cross reactivity of spinorphin analogues; format: binding; conditions: for detection by the method of the present invention (reaction with spinorphin antibody): analogue as competitive compound for immobilized spinorphin; for IC50: competition with spinorphin immobilized on plate for spinorphin rabbit antibody; for Cross reactivity: ratio of spinorphin relative to IC50
in vitro = conditions: bovine, cerebrospinal or other body fluid
Description: A test was carried out to confirm whether the activity of spinorphin could be retained through the period from the step (B) to the step (E). Spinorphin (1 μg/mL) in TBS was dissolved in bovine cerebrospinal fluid. The cerebrospinal fluid was allowed to stand at room temperature for various time periods. The reaction was stopped, and the amount of spinorphin was measured according to the method mentioned in the above (2).

| detection by the method of the present invention (reaction with spinorphin antibody) [1] | Substance | also measured |
| --- | --- | --- |
| could not be detected | VVYP [spinorphin analogue] |  |
|  | LVVYPWT [Spinorphin, Leu-Val-Val-Tyr-Pro-Trp-Thr] | IC50 [1]: 0.00064 ± 0.00061 µg/mL; Cross reactivity [1]: 1; remaining at 1 h, 1 μg/mL (in vitro): 98.8 ± 0.98% |
| could not be detected | VYPW [spinorphin analogue] |  |
| could not be detected | VYP |  |
|  | VVYPWT | IC50 [1]: 1.6 ± 5 µg/mL; Cross reactivity [1]: 0.0004 |
| could not be detected | YPW |  |
|  | VYPWT | IC50 [1]: >10 µg/mL; Cross reactivity [1]: <6.4 × 10^−5 |
| could not be detected | Pro-Trp-Thr [PWT] |  |

| Substance | detection by the method of the present invention (reaction with spinorphin antibody) [1] | also measured |
| --- | --- | --- |
| LVVYP [spinorphin analogue] | could not be detected |  |
| LVVYPW [spinorphin analogue] | could not be detected |  |
| YPWT [hemorphin-4] | could not be detected |  |
| VVYPW [tynorphin] | could not be detected |  |
